Data on 45 compounds can be found in patent US8501783B2, “Conformationally restricted urea inhibitors of soluble epoxide hydrolase” (The Regents of the University of California, priority 2006, dated 2013).

human sEH, sequence (P34913 whole entry): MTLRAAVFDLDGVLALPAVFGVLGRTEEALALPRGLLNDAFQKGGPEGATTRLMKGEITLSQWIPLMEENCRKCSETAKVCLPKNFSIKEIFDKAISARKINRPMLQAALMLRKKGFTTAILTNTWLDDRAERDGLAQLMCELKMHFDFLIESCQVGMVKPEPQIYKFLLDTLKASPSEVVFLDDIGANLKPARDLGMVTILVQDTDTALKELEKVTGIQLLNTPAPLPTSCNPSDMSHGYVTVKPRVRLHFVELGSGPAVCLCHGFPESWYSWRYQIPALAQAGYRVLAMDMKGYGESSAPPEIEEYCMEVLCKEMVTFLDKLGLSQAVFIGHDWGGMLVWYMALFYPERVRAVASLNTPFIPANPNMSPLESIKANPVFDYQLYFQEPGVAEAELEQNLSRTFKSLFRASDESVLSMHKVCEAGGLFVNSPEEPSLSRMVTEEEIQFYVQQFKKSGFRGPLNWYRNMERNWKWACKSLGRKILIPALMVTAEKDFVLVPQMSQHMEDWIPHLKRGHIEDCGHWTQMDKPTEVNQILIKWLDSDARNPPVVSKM

The first data set has as its target human sEH (Homo sapiens (Human), UniProt P34913). The data set is described as follows: Inhibition of human soluble epoxide hydrolase (IC50; one of three substrate methods).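 Further: enzyme expressed in baculovirus and affinity-purified, assays run in triplicate, with substrate and read-out differing among the three methods.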 It is filed as biochemical.
Conditions: not given
Take `COC(=O)c1cccc(C(=O)N2CCC(NC(=O)NC34CC5CC(CC(C5)C3)C4)CC2)c1` [Compound 1203, 3-[4-(3-Adamantan-1-yl-ureido)-piperidine-1-carbonyl]-benzoic acid methyl ester]: the half-maximal inhibitory concentration (IC50) (in general, the concentration that inhibits the measured activity by half) came out at 1.1 nM.

Regarding `O=C(NC1CCN(C(=O)c2cccc(C(=O)O)c2)CC1)NC12CC3CC(CC(C3)C1)C2` [Compound 1505, 3-[4-(3-Adamantan-1-yl-ureido)-piperidine-1-carbonyl]-benzoic acid], the IC50 is 10.1 nM.

Turning to `O=C(NC1CCN(C(=O)c2cccnc2)CC1)NC12CC3CC(CC(C3)C1)C2` [Compound 1434, N-(1-(Pyridine-3-carbonyl)piperidin-4-yl)-N′-(adamant-1-yl)urea], the IC50 was 2.1 nM.

On to `O=C(O)CCCC(=O)N1CCC(NC(=O)NC23CC4CC(CC(C4)C2)C3)CC1` [Compound 1501, 5-[4-(3-Adamantan-1-yl-ureido)-piperidin-1-yl]-5-oxo-pentanoic acid], for which the IC50 amounted to 72.8 nM.

`O=C(NC1CCN(C(=O)c2ccccc2C(=O)O)CC1)NC12CC3CC(CC(C3)C1)C2` [Compound 1507, 2-[4-(3-Adamantan-1-yl-ureido)-piperidine-1-carbonyl]-benzoic acid] yielded an IC50 of 161 nM.

As to `COC(=O)CCC(=O)N1CCC(NC(=O)NC23CC4CC(CC(C4)C2)C3)CC1` [Compound 1205, 4-[4-(3-Adamantan-1-yl-ureido)-piperidin-1-yl]-4-oxo-butanoic acid methyl ester], the IC50 amounted to 9 nM.

With `O=C(NC1CCN(C(=O)c2ccncc2)CC1)NC12CC3CC(CC(C3)C1)C2` [Compound 1433, N-(1-(pyridine-4-carbonyl)piperidin-4-yl)-N′-(adamant-1-yl)urea], the IC50 is 1.7 nM.

The data set is the same for the next values; noted with them: recombinant human sEH.
For `O=C(NC1CCCCC1)NC1CCNCC1` [Compound 1602], the 50% inhibitory concentration (IC50) was 562 nM.

`Cc1c(COC(=O)NCc2cccnc2)cccc1-c1ccccc1` [Compound 1560, Pyridin-3-ylmethyl-carbamic acid 2-methyl-biphenyl-3-ylmethyl ester]: the IC50 was determined as 4410 nM.

Turning to `COC(=O)c1ccccc1C(=O)N1CCC(CNC(=O)NC23CC4CC(CC(C4)C2)C3)CC1` [Compound 1210, 2-{4-[(3-Adamantan-1-yl-ureido)-methyl]-piperidine-1-carbonyl}-benzoic acid methy ester], the half-maximal inhibitory concentration (IC50) came out at 1.8 nM.

On to `Cc1ccc(S(=O)(=O)N2CCC(NC(=O)Nc3ccc(OC(F)(F)F)cc3)CC2)cc1` [Compound 1711, 1-[1-(Toluene-4-sulfonyl)-piperidin-4-yl]-3-(4-trifluoromethoxy-phenyl)-urea], for which the IC50 turned out to be 0.4 nM.

With `CCCCCCCCCCCCNC(=O)NC1CCNCC1` [Compound 1550, 1-Dodecyl-3-piperidin-4-yl-urea], the 50% inhibitory concentration (IC50) amounted to 42.5 nM.

`CCCC(=O)N1CCC(CNC(=O)NC23CC4CC(CC(C4)C2)C3)CC1` [Compound 1120, N-((1-butyrylpiperidin-4-yl)methyl)-N′-(adamant-1-yl)urea]: the IC50 turned out to be 6.7 nM.

For the compound `O=C(Nc1ccc2[nH]ccc2c1)NC1CCCCC1` [Compound 1554, 1-Cyclohexyl-3-(1H-indol-5-yl)-urea], the IC50 was determined as 87 nM.

Turning to `COC(=O)c1cccc(C(=O)N2CCC(CNC(=O)NC34CC5CC(CC(C5)C3)C4)CC2)c1` [Compound 1209, 3-{4-[(3-Adamantan-1-yl-ureido)-methyl]-piperidine-1-carbonyl}-benzoic acid methy ester], the IC50 came to 4.1 nM.

Regarding `CCCCCCCCCCCCNC(=O)Nc1ccc2[nH]cnc2c1` [Compound 1568, 1-(1H-Benzoimidazol-5-yl)-3-dodecyl-urea], the half-maximal inhibitory concentration (IC50) was found to be 5020 nM.

For the compound `Cc1c(COC(=O)NCc2ccncc2)cccc1-c1ccccc1` [Compound 1558, Pyridin-4-ylmethyl-carbamic acid 2-methyl-biphenyl-3-ylmethyl ester], the IC50 was determined as 1330 nM.

As to `O=C(NCC1CCN(C(=O)c2ccncc2)CC1)NC12CC3CC(CC(C3)C1)C2` [Compound 1435], the IC50 was 5.4 nM.

In the case of `O=C(NCC1CCN(C(=O)c2ccccc2C(=O)O)CC1)NC12CC3CC(CC(C3)C1)C2` [Compound 1506, 2-{4-[(3-Adamantan-1-yl-ureido)-methyl]-piperidine-1-carbonyl}-benzoic acid], the IC50 amounted to 407 nM.

With `COC(=O)CCCC(=O)N1CCC(CNC(=O)NC23CC4CC(CC(C4)C2)C3)CC1` [Compound 1212, 5-{4-[(3-Adamantan-1-yl-ureido)-methyl]-piperidin-1-yl}-5-oxo-pentanoic acid methyl ester], the concentration for half-maximal inhibition (IC50) turned out to be 3.4 nM.

For `O=C(NC1CCN(C(=O)c2ccccc2)CC1)NC1CCN(C(=O)c2ccccc2)CC1` [Compound 1605, 1,3-Bis-(1-benzoyl-piperidin-4-yl)urea], the IC50 turned out to be 4.8 nM.

Consider `COC(=O)c1ccc(C(=O)N2CCC(CNC(=O)NC34CC5CC(CC(C5)C3)C4)CC2)cc1` [Compound 1211, 4-{4-[(3-Adamantan-1-yl-ureido)-methyl]-piperidine-1-carbonyl}-benzoic acid methyl ester], for which the IC50 was 1.5 nM.

As for `O=C(O)CCC(=O)N1CCC(CNC(=O)NC23CC4CC(CC(C4)C2)C3)CC1` [Compound 1502, 4-{4-[(3-Adamantan-1-yl-ureido)-methyl]-piperidin-1-yl}-4-oxo-butanoic acid], the IC50 came out at 174 nM.

Take `COC(=O)c1ccccc1C(=O)N1CCC(NC(=O)NC23CC4CC(CC(C4)C2)C3)CC1` [Compound 1202, 2-[4-(3-Adamantan-1-yl-ureido)-piperidine-1-carbonyl]-benzoic acid methyl ester]: the IC50 is 1.7 nM.

As to `O=C(NCc1cccnc1)Oc1cccc(-c2ccccc2)c1` [Compound 1559, Pyridin-3-ylmethyl-carbamic acid biphenyl-3-yl ester], the IC50 stood at 23000 nM.

As for `O=C(Nc1ccc(OC(F)(F)F)cc1)NC1CCN(C(=O)C(F)(F)F)CC1` [Compound 1591, 1-[1-(2,2,2-Trifluoro-acetyl)-piperidin-4-yl]-3-(4-trifluoromethoxy-phenyl)-urea], the IC50 came to 0.4 nM.

As for `O=C(CC12CC3CC(CC(C3)C1)C2)NC1CCN(C(=O)C(F)(F)F)CC1` [Compound 1644], the IC50 amounted to 28.3 nM.

For the compound `O=C(N1CCC(NC(=O)C23CC4CC(CC(C4)C2)C3)CC1)C(F)(F)F` [Compound 1643, Adamantane-1-carboxylic acid [1-(2,2,2-trifluoro-acetyl)-piperidin-4-yl]-amide], the IC50 was 4210 nM.

In the case of `O=C(O)CCC(=O)N1CCC(NC(=O)NC23CC4CC(CC(C4)C2)C3)CC1` [Compound 1503, 4-[4-(3-Adamantan-1-yl-ureido)-piperidin-1-yl]-4-oxo-butanoic acid], the IC50 amounted to 254 nM.

With `O=C(O)CCCC(=O)N1CCC(CNC(=O)NC23CC4CC(CC(C4)C2)C3)CC1` [Compound 1500, 5-{4-[(3-Adamantan-1-yl-ureido)-methyl]-piperidin-1-yl}-5-oxo-pentanoic acid], the IC50 was found to be 41.6 nM.

Consider `CCCCCCCCCCCCNC(=O)Nc1ccc2[nH]ccc2c1` [Compound 1553, 1-Dodecyl-3-(1H-indol-5-yl)-urea], for which the IC50 stood at 639 nM.

Turning to `O=C(NC1CCNCC1)NC1CCNCC1` [Compound 1604, 1,3-Di-piperidin-4-yl-urea], the concentration for half-maximal inhibition (IC50) was 100000 nM.

“Morpholine-4-carboxylic acid 2-methyl-biphenyl-3-ylmethyl ester [Compound 1562]”: the IC50 was 12000 nM.

As to `O=C(Nc1ccc(OC(F)(F)F)cc1)NC1CCNCC1` [Compound 1570, 1-Piperidin-4-yl-3-(4-trifluoromethoxy-phenyl)-urea], the IC50 amounted to 2320 nM.

For `CC(=O)N1CCC(NC(=O)C23CC4CC(CC(C4)C2)C3)CC1` [Compound 1641, Adamantane-1-carboxylic acid (1-acetyl-piperidin-4-yl)-amide], the IC50 amounted to 12600 nM.

Consider `COC(=O)CCC(=O)N1CCC(CNC(=O)NC23CC4CC(CC(C4)C2)C3)CC1` [Compound 1208, 4-{4-[(3-Adamantan-1-yl-ureido)-methyl]-piperidin-1-yl}-4-oxo-butanoic acid methyl ester], for which the IC50 was determined as 6.2 nM.

In the case of `O=C(Nc1ccc2[nH]cnc2c1)NC1CCCCC1` [Compound 1569, 1-(1H-Benzoimidazol-5-yl)-3-cyclohexyl-urea], the IC50 was 457 nM.

Take `O=C(NCC1CCN(C(=O)c2cccc(C(=O)O)c2)CC1)NC12CC3CC(CC(C3)C1)C2` [Compound 1504, 3-{4-[(3-Adamantan-1-yl-ureido)-methyl]-piperidine-1-carbonyl}-benzoic acid]: the IC50 worked out at 43.6 nM.

On to `CN(C)c1cccc2c(S(=O)(=O)N3CCC(NC(=O)Nc4ccc(OC(F)(F)F)cc4)CC3)cccc12` [Compound 1710, 1-[1-(5-dimethylamino-naphthalene-1-sulfonyl)-piperidin-4-yl]-3-(4-trifluoromethoxy-phenyl)-urea], for which the 50% inhibitory concentration (IC50) was determined as 0.8 nM.

With `O=C(NCC1CCN(C(=O)c2ccccn2)CC1)NC12CC3CC(CC(C3)C1)C2` [Compound 1207], the 50% inhibitory concentration (IC50) amounted to 7.6 nM.

On to `O=C(NCC1CCN(C(=O)c2cccnc2)CC1)NC12CC3CC(CC(C3)C1)C2` [Compound 1436, N-((1-(pyridine-3-carbonyl)piperidin-4-yl)methyl)-N′-(adamant-1-yl)urea], for which the IC50 came to 7.3 nM.

Regarding `CC(C)(C)OC(=O)N1CCC(NC(=O)NC2CCCCC2)CC1` [Compound 1551, 4-(3-Cyclohexyl-ureido)-piperidine-1-carboxylic acid tert-butyl ester], the IC50 came to 4.3 nM.

For the compound `CCC(=O)N1CCC(CNC(=O)NC23CC4CC(CC(C4)C2)C3)CC1` [Compound 1162, N-((1-propanoylpiperidin-4-yl)methyl)-N′-(adamant-1-yl)urea], the IC50 stood at 8.7 nM.

As to `O=C(Oc1cccc(-c2ccccc2)c1)N1CCOCC1` [Compound 1561, Morpholine-4-carboxylic acid biphenyl-3-yl ester], the IC50 turned out to be 65300 nM.

Test system in another data set: not listed separately
The data set is described as follows: Pharmacokinetic screening in dogs, oral administration, plasma LC-MS/MS. Particulars: dog, plasma, po, 0.3 mg/kg.
For `CC(=O)N1CCC(CNC(=O)NC23CC4CC(CC(C4)C2)C3)CC1` [Compound 1156, N-((1-acetylpiperidin-4-yl)methyl)-N′-(adamant-1-yl)urea], the AUC (commonly concentration integrated over time) is 0.0817 µM·h.
